For this assay, the system named is BDF1 mice, colon carcinoma 38 sc, T/C %. The experiment in a line: NCI In Vivo Anticancer Drug Screen. Data for tumor model Colon Carcinoma 38 (subcutaneous) in B6D2F1 (BDF1) mice. The note with it: endpoint: median tumor weight (est.), higher = larger tumour. In outline: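 Mice with transplanted tumors are treated with compound or vehicle. Survival or tumor size is then measured in both groups. The ratio of treated to control gives the reported figure.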

Setting [1] is: dose: 2.5 mg/kg/injection, schedule: Q07DX002 (ip), vehicle: saline with Tween-80.
Setting [2] is: dose: 12.5 mg/kg/injection, schedule: Q07DX002 (ip), vehicle: saline with Tween-80.
Setting [3] is: dose: 25.0 mg/kg/injection, schedule: Q07DX002 (ip), vehicle: saline with Tween-80.
Setting [4] is: dose: 50.0 mg/kg/injection, schedule: Q07DX002 (ip), vehicle: saline with Tween-80.
[5] abbreviates: dose: 200.0 mg/kg/injection, schedule: Q07DX002 (ip), vehicle: saline with Tween-80.
Where [6] appears, read: dose: 100.0 mg/kg/injection, schedule: Q07DX002 (ip), vehicle: saline with Tween-80.
Where [7] appears, read: dose: 100.0 mg/kg/injection, schedule: Q07DX002 (ip), vehicle: Klucel (hydroxypropylcellulose) (HPC).

Where “and” joins values, the source holds several entries; their conditions need not be identical. Equal values may be shown once. Results filed as inconclusive are left out.

As for `CN(C)c1ccc(C(=C2C=CC(=[N+](C)C)C=C2)c2ccc(N(C)C)cc2)cc1` (tested in a mixture with another compound), the T/C is 61 % of control (dose: 0.62 mg/kg/injection, schedule: Q07DX002 (ip), vehicle: saline with Tween-80) and 71 % of control under setting [1].

With `C/C=C/c1cc2c(c(=O)o1)C(=O)[C@@H](O)[C@H](C)O2`, the T/C runs as follows: under setting [2], 73 % of control and 95 % of control; under setting [3], 61 % of control and 80 % of control; under setting [4], 72 % of control and 76 % of control; under setting [5], 71 % of control and 86 % of control.

For the molecule `C1=CCOCOC1`, the T/C under setting [2] was 77 % of control; the T/C under setting [3] was 94 % of control and 104 % of control; the T/C under setting [6] is 72 % of control; the T/C under setting [5] was 58 % of control.

As for `N#CC(OC1OC(COC2OC(CO)C(O)C(O)C2O)C(O)C(O)C1O)c1ccccc1` (centres undefined), the T/C runs as follows: (dose: 50.0 mg/kg/injection, schedule: Q07DX002 (ip), vehicle: water) 98 % of control; (dose: 100.0 mg/kg/injection, schedule: Q07DX002 (ip), vehicle: water) 87 % of control; (dose: 200.0 mg/kg/injection, schedule: Q07DX002 (ip), vehicle: water) 112 % of control; (dose: 400.0 mg/kg/injection, schedule: Q07DX002 (ip), vehicle: water) 102 % of control; (dose: 1600.0 mg/kg/injection, schedule: Q07DX002 (ip), vehicle: water) 91 % of control.

`Cc1cnc(/C=N\NC(N)=S)c2cccc(N)c12`: the T/C reads like this: (dose: 6.25 mg/kg/injection, schedule: Q07DX002 (ip), vehicle: saline with Tween-80) 110 % of control; (dose: 6.25 mg/kg/injection, schedule: Q07DX003 (ip), vehicle: saline with Tween-80) 88 % of control; under setting [2], 69 % of control; (dose: 12.5 mg/kg/injection, schedule: Q07DX003 (ip), vehicle: saline with Tween-80) 111 % of control; (dose: 25.0 mg/kg/injection, schedule: Q07DX003 (ip), vehicle: saline with Tween-80) 122 % of control; under setting [4], 36 % of control and 57 % of control. Moreover, the T/C (dose: 50.0 mg/kg/injection, schedule: Q07DX003 (ip), vehicle: saline with Tween-80) is 45 % of control.

As for `Oc1cc2ccccc2c(-c2c(O)c(O)cc3ccccc23)c1O`, the T/C by setting is: under setting [2], 94 % of control; under setting [3], 119 % of control; under setting [4], 114 % of control; under setting [6], 81 % of control; under setting [5], 64 % of control; (dose: 400.0 mg/kg/injection, schedule: Q07DX002 (ip), vehicle: saline with Tween-80) 64 % of control.

As for `CSc1cc(=O)n2c3ccccc3c3ccnc1c32`, the T/C reads like this: (dose: 1.25 mg/kg/injection, schedule: Q07DX002 (ip), vehicle: saline with Tween-80) 60 % of control; under setting [1], 57 % of control and 77 % of control.

Regarding `O=c1ccc2ccccc2o1`, the T/C was 115 % of control (dose: 50.0 mg/kg/injection, schedule: Q07DX002 (ip), vehicle: Klucel (hydroxypropylcellulose) (HPC)); 118 % of control under setting [7]; 118 % of control (dose: 200.0 mg/kg/injection, schedule: Q07DX002 (ip), vehicle: Klucel (hydroxypropylcellulose) (HPC)).

`O=c1ssc(=Nc2ccccc2)n1-c1ccccc1`: the T/C under setting [7] is 97 % of control and 102 % of control.

On to `CCCCCCCCCCCCCCCCS(=O)CC(O)COC(=O)c1ccc(C(=O)OCC(O)CS(=O)CCCCCCCCCCCCCCCC)cc1` (centres undefined), for which the T/C is 111 % of control (dose: 12.5 mg/kg/injection, schedule: Q07DX002 (ip), vehicle: saline + alcohol); 98 % of control (dose: 25.0 mg/kg/injection, schedule: Q07DX002 (ip), vehicle: saline + alcohol); 98 % of control (dose: 50.0 mg/kg/injection, schedule: Q07DX002 (ip), vehicle: saline + alcohol); 117 % of control (dose: 100.0 mg/kg/injection, schedule: Q07DX002 (ip), vehicle: saline + alcohol); 76 % of control (dose: 200.0 mg/kg/injection, schedule: Q07DX002 (ip), vehicle: saline + alcohol); 104 % of control (dose: 400.0 mg/kg/injection, schedule: Q07DX002 (ip), vehicle: saline + alcohol).

As to `COC1C(C)OC(OC2CC(C)(O)Cc3cc4c(c(O)c32)C(=O)c2c(O)cc3c(c2C4=O)OC2OC3(C)C(O)C(N(C)C)C2O)C(OC)C1(C)OC` (centres undefined), the T/C reads like this: (dose: 0.62 mg/kg/injection, schedule: Q07DX002 (ip), vehicle: other) 53 % of control; (dose: 1.25 mg/kg/injection, schedule: Q07DX002 (ip), vehicle: other) 81 % of control; (dose: 5.0 mg/kg/injection, schedule: Q07DX002 (ip), vehicle: other) 83 % of control; (dose: 10.0 mg/kg/injection, schedule: Q07DX002 (ip), vehicle: other) 89 % of control.

In the case of `CN(C)CCN1C(=O)c2cccc3cc(N)cc(c23)C1=O`, the T/C (dose: 2.0 mg/kg/injection, schedule: Q07DX002 (ip), vehicle: saline with Tween-80) is 111 % of control; the T/C (dose: 4.0 mg/kg/injection, schedule: Q07DX002 (ip), vehicle: saline with Tween-80) was 97 % of control; the T/C (dose: 8.0 mg/kg/injection, schedule: Q07DX002 (ip), vehicle: saline with Tween-80) was 87 % of control and 88 % of control; the T/C (dose: 16.0 mg/kg/injection, schedule: Q07DX002 (ip), vehicle: saline with Tween-80) was 100 % of control; the T/C (dose: 64.0 mg/kg/injection, schedule: Q07DX002 (ip), vehicle: saline with Tween-80) is 55 % of control and 58 % of control.
